The subject of the experiment is HMVEC. The experiment can be described thus: human microvascular endothelial (HMVEC) migration assay. The note with it: Inhibition of HMVEC migration, activators 15 ng/mL bFGF/VEGF, 4 hours at 37 °C, compared to a positive control; for inhibition at 0.0001 µM: Homo sapiens, 0.1 nM. It counts as cell-based. The protocol:
The human microvascular endothelial (HMVEC) migration assay was run according to the procedure of S. S. Tolsma, O. V. Volpert, D. J. Good, W. F. Frazier, P. J. Polverini and N. Bouck, J. Cell Biol. 122, 497-511 (1993).
The HMVEC migration assay was carried out using Human Microvascular Endothelial Cells-Dermal (single donor) and Human Microvascular Endothelial Cells, (neonatal). The BCE or HMVEC cells were starved overnight in DME containing 0.01% bovine serum albumin (BSA). Cells were then harvested with trypsin and resuspended in DME with 0.01 % BSA at a concentration of 1.5 X 10^6 cells per mL. Cells were added to the bottom of a 48 well modified Boyden chamber (Nucleopore Corporation, Cabin John, MD). The chamber was assembled and inverted, and cells were allowed to attach for 2 hours at 37 °C to polycarbonate chemotaxis membranes (5 µm pore size) that had been soaked in 0.01 % gelatin overnight and dried. The chamber was then reinverted, and test substances (total volume of 50 µL), including activators, 15 ng/mL bFGF/VEGF, were added to the wells of the upper chamber. The apparatus was incubated for 4 hours at 37 °C. Membranes were recovered, fixed and stained (Diff Quick, Fisher Scientific) and the number of cells that had migrated to the upper chamber per 3 high power fields counted. Background migration to DME + […] was subtracted and the data reported as the number of cells migrated per 10 high power fields (400X) or, when results from multiple experiments were combined, as the percent inhibition of migration compared to a positive control.

Consider 16 compounds from patent publication EP1680415B1, “PYRROLIDINYL UREA DERIVATIVES AS ANGIOGENESIS INHIBITORS” (ABBOTT LABORATORIES, priority 2003, dated 2005).

As for “4-methyl-N-{(3R)-1-[(6-methylpyridin-3-yl)carbonyl]pyrrolidin-3-yl}-1,4-diazepane-1-carboxamide [Example 94]”, under “0.01 nM”, the “% Inhibition @ 0.01 nM” value amounted to 57%. In turn, `Cc1ccc(C(=O)N2CC[C@@H](NC(=O)NCc3ccccc3)C2)cn1` [Example 1, N-benzyl-N'-{(3R)-1-[(6-methylpyridin-3-yl)carbonyl]pyrrolidin-3-yl}urea] gave an inhibition at 0.0001 µM of 80%. With `Cc1ccc(C(=O)N2CC[C@@H](NC(=O)N3CCCC3)C2)cn1` [Example 2, N-{(3R)-1-[(6-methyl-3-pyridinyl)carbonyl]-3-pyrrolidinyl}-1-pyrrolidinecarboxamide], the inhibition at 0.0001 µM was 98%. Still for that read-out and setting: the same measure for `Cc1ccc(C(=O)N2CC[C@@H](NC(=O)NCCCN3CCOCC3)C2)cn1` [Example 3, N-{(3R)-1-[(6-methyl-3-pyridinyl)carbonyl]-3-pyrrolidinyl}-N'-[3-(4-morpholinyl)propyl]urea]: 60%; for `Cc1ccc(C(=O)N2CC[C@@H](NC(=O)NCCc3c[nH]cn3)C2)cn1` [Example 4, N-[2-(1H-imidazol-4-yl)ethyl]-N'-{(3R)-1-[(6-methyl-3-pyridinyl)carbonyl]-3-pyrrolidinyl}urea]: 69%.

`Cc1ccc(C(=O)N2CC[C@@H](NC(=O)NCCc3c[nH]c4ccccc34)C2)cn1` [Example 5, N-[2-(1H-indol-3-yl)ethyl]-N'-{(3R)-1-[(6-methyl-3-pyridinyl)carbonyl]-3-pyrrolidinyl}urea] showed an inhibition at 0.0001 µM of 59%. On the same count and under the same terms, the same measure for `CCNC(=O)N[C@@H]1CCN(C(=O)c2ccc(C)nc2)C1` [Example 6, N-ethyl-N'-{(3R)-1-[(6-methyl-3-pyridinyl)carbonyl]-3-pyrrolidinyl}urea]: 70%. Still for that read-out and setting: with `Cc1ccc(C(=O)N2CC[C@@H](NC(=O)NCC(C)C)C2)cn1` [Example 7, N-isobutyl-N'-{(3R)-1-[(6-methyl-3-pyridinyl)carbonyl]-3-pyrrolidinyl}urea] the figure was 90%. On the same count and under the same terms, the same measure for `CCCC(C)NC(=O)N[C@@H]1CCN(C(=O)c2ccc(C)nc2)C1` (stereo partly drawn) [Example 8, N-(1-methylbutyl)-N'-{(3R)-1-[(6-methyl-3-pyridinyl)carbonyl]-3-pyrrolidinyl}urea]: 56%; for `Cc1ccc(C(=O)N2CC[C@@H](NC(=O)NCC(C)(C)C)C2)cn1` [Example 9, N-{(3R)-1-[(6-methyl-3-pyridinyl)carbonyl]-3-pyrrolidinyl}-N'-neopentylurea]: 71%. Compound `Cc1ccc(C(=O)N2CC[C@@H](NC(=O)NCCC(C)(C)C)C2)cn1` [Example 10, N-(3,3-dimethylbutyl)-N'-{(3R)-1-[(6-methyl-3-pyridinyl)carbonyl]-3-pyrrolidinyl}urea] showed an inhibition at 0.0001 µM of 65%. Same read-out and setting: the same measure for `Cc1ccc(C(=O)N2CC[C@@H](NC(=O)NCC(F)(F)F)C2)cn1` [Example 11, N-{(3R)-1-[(6-methyl-3-pyridinyl)carbonyl]-3-pyrrolidinyl}-N'-(2,2,2-trifluoroethyl)urea]: 81%. The same measure, in the same setting: the same measure for `COCC(C)NC(=O)N[C@@H]1CCN(C(=O)c2ccc(C)nc2)C1` (stereo partly drawn) [Example 12, N-(2-methoxy-1-methylethyl)-N'-{(3R)-1-[(6-methyl-3-pyridinyl)carbonyl]-3-pyrrolidinyl}urea]: 77%. The same measure, in the same setting: with `CCOCCNC(=O)N[C@@H]1CCN(C(=O)c2ccc(C)nc2)C1` [Example 13, N-(2-ethoxyethyl)-N'-{(3R)-1-[(6-methyl-3-pyridinyl)carbonyl]-3-pyrrolidinyl}urea] the figure was 83%; with `Cc1ccc(C(=O)N2CC[C@@H](NC(=O)NCC3CCOC3)C2)cn1` (stereo partly drawn) [Example 14, N-{(3R)-1-[(6-methyl-3-pyridinyl)carbonyl]-3-pyrrolidinyl}-N'-(tetrahydro-3-furanylmethyl)urea], 57%. `Cc1ccc(C(=O)N2CC[C@@H](NC(=O)NCC#N)C2)cn1` [Example 15, N-(cyanomethyl)-N'-{(3R)-1-[(6-methyl-3-pyridinyl)carbonyl]-3-pyrrolidinyl}urea]: testing at 0.0001 µM gave an inhibition of 64%.
